Series [1] relates to Liver microsome. The series is described as follows: Drug metabolism in human liver microsomes assessed as dextrophan-O-glucuronide formation measured as microsomal fraction unbound in presence of 2% BSA. The series is classed as ADME. For orientation: Liver microsomes are a subcellular fraction often used to study metabolism.
Series [2] relates to Liver microsome. The series is described as follows: Drug metabolism in human liver microsomes assessed as dextrophan-O-glucuronide formation measured per mg of microsomal protein. It is filed as ADME.
Series [3] has as its system Liver microsome. The series is described as follows: Drug metabolism in human liver microsomes assessed as dextrophan-O-glucuronide formation measured per mg of microsomal protein in presence of 2% BSA. It is filed as ADME.
Series [4] deals with Liver microsome. Description: Drug metabolism in human liver microsomes assessed as 3-hydroxymorphinan formation measured as intrinsic unbound clearance. It is filed as ADME.
The target of series [5] is T1, UDP-glucuronosyltransferase 1A4 (Homo sapiens, UniProt P22310).
T1 sequence (P22310 whole entry): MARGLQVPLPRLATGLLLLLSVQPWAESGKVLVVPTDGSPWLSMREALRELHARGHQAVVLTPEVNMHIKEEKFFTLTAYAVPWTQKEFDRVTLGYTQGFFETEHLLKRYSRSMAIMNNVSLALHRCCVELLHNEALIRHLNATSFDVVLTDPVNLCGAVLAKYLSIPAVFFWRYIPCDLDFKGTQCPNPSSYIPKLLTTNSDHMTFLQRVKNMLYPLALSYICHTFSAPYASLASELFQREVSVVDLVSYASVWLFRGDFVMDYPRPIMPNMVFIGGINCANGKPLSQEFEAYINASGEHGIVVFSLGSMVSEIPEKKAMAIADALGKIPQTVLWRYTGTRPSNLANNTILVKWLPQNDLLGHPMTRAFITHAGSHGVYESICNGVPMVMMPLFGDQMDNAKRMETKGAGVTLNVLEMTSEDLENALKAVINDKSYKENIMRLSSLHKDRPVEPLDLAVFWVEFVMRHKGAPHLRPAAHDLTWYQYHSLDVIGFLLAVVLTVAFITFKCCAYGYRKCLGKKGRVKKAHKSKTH
The series is described as follows: Drug metabolism assessed as recombinat UGT1A4 (unknown origin) -mediated dextrophan-O-glucuronide formation. It is filed as ADME.

In series [6] the test system is Liver microsome. Description: Drug metabolism in human liver microsomes assessed as dextrophan-O-glucuronide formation. It is filed as ADME.
Series [7] addresses T2, UDP-glucuronosyltransferase 1A3 (Homo sapiens, UniProt P35503).
T2 sequence (P35503 whole entry): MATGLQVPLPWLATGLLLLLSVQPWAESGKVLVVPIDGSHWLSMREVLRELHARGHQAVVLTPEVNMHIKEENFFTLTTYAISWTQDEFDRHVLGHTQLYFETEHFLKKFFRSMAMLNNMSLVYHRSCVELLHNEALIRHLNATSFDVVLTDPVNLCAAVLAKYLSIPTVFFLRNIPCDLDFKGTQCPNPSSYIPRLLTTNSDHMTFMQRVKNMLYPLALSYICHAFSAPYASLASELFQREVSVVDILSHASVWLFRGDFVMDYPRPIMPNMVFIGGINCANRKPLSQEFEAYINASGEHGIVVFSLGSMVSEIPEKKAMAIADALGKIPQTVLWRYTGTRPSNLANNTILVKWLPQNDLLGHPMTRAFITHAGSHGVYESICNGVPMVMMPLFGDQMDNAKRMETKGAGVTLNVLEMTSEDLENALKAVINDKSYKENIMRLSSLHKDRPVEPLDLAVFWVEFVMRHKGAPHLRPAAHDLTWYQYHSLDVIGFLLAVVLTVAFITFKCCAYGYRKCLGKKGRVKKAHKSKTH
Description: Drug metabolism assessed as recombinat UGT1A3 (unknown origin) -mediated dextrophan-O-glucuronide formation. The series is classed as ADME.

For series [8], the system named is Liver microsome. Description: Drug metabolism in human liver microsomes assessed as dextrophan-O-glucuronide formation measured as microsomal fraction unbound. It is filed as ADME.
Series [9] relates to Liver microsome. Description: Drug metabolism in human liver microsomes assessed as 3-hydroxymorphinan formation measured as plasma fraction unbound. The series is classed as ADME, cell-free.
Series [10] concerns Liver microsome. The series is described as follows: Drug metabolism in human liver microsomes assessed as dextrophan-O-glucuronide formation measured as intrinsic unbound clearance in presence of 2% BSA. The series is classed as ADME.
In series [11] the test system is Liver microsome. The series is described as follows: Drug metabolism in human liver microsomes assessed as dextrophan-O-glucuronide formation measured as intrinsic clearance in presence of 2% BSA. It is filed as ADME.
The test system of series [12] is Liver microsome. Description: Drug metabolism in human liver microsomes assessed as 3-hydroxymorphinan formation. It is filed as ADME.
Series [13] concerns the target T3, UDP-glucuronosyltransferase 1A1 (Homo sapiens, UniProt P22309).
T3 sequence (P22309 whole entry): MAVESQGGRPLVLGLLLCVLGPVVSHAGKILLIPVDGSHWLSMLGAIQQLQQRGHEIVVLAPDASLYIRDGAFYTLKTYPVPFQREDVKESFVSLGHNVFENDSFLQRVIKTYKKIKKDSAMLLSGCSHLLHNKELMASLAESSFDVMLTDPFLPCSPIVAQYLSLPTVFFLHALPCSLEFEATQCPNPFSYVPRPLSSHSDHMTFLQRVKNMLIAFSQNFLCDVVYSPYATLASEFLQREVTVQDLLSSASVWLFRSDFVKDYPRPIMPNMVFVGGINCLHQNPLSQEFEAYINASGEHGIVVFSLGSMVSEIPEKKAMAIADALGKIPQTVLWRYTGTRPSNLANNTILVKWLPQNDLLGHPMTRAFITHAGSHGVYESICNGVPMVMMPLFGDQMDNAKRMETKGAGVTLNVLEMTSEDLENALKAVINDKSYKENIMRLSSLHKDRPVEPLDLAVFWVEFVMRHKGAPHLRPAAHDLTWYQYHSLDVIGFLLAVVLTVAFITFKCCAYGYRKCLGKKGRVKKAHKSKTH
Description: Drug metabolism assessed as recombinat UGT1A1 (unknown origin) -mediated dextrophan-O-glucuronide formation. The series is classed as ADME.

The subject of series [14] is Liver microsome. Description: Drug metabolism in human liver microsomes assessed as 3-hydroxymorphinan formation measured as intrinsic clearance. It is filed as ADME.
Series [15] concerns the target T4, UDP-glucuronosyltransferase 2B17 (Homo sapiens, UniProt O75795).
T4 sequence (O75795 whole entry): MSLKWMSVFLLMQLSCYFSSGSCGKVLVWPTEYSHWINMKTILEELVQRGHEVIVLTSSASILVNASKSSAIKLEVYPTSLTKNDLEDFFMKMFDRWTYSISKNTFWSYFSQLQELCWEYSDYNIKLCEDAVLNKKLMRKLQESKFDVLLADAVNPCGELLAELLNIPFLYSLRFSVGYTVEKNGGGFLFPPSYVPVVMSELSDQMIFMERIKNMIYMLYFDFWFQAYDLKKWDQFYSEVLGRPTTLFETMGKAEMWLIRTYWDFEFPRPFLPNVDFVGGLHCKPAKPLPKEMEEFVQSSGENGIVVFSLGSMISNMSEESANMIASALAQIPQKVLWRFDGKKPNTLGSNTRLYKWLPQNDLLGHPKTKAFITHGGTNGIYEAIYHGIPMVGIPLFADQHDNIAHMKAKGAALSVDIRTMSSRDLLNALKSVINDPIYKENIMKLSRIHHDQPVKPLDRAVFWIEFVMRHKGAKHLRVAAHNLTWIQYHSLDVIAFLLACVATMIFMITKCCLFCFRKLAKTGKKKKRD
Description: Drug metabolism assessed as recombinat UGT2B17 (unknown origin) -mediated dextrophan-O-glucuronide formation. It is filed as ADME.

Series [16] deals with Liver microsome. Description: Drug metabolism in human liver microsomes assessed as dextrophan-O-glucuronide formation in presence of 2% BSA. It is filed as ADME.
The test system of series [17] is Liver microsome. The series is described as follows: Drug metabolism in human liver microsomes assessed as dextrophan-O-glucuronide formation measured as plasma fraction unbound. The series is classed as ADME, cell-free.
For series [18], the system named is Liver microsome. The series is described as follows: Drug metabolism in human liver microsomes assessed as 3-hydroxymorphinan formation measured per mg of microsomal protein. It is filed as ADME.

The Vmax is the rate approached at saturating substrate. Broadly, the Km is the concentration of substrate that gives half-maximal velocity. In the case of `CN1CC[C@@]23CCCC[C@@H]2[C@@H]1Cc1ccc(O)cc13` [DEXTRORPHAN], the Fu in the series with Liver microsome [1] came to 0.88; in the series with Liver microsome [8], 1; with Liver microsome [9], 0.55; with Liver microsome [17] it was 0.55. Also, the Vmax in the series on Liver microsome [2] came to 2 nmol/min; in the series with Liver microsome [3], 2.3 nmol/min; in the series on Liver microsome [18], 0.8 nmol/min. Also, the CL free was found to be 0.95 µL/min/mg in the series on Liver microsome [4] and 12 µL/min/mg in the series on Liver microsome [10]. The Drug metabolism entry is “metabolite_not_detected” in series [5], “metabolite_not_detected” in series [7], “metabolite_not_detected” in series [13] and “metabolite_detected” in [15]. The values for the Km in the series with Liver microsome [6], in the series on Liver microsome [12] and in the series on Liver microsome [16] were 690 µM, 910 µM and 210 µM, respectively. Besides, the CLH in the series with Liver microsome [11] came out at 11 µL/min/mg; with Liver microsome [14], 0.88 µL/min/mg.
